In PMC10914731, “Homo-BacPROTAC-induced degradation of ClpC1 as a strategy against drug-resistant mycobacteria” (Nature Communications, 2024):
Values after ≈ are worked out from the molar mass of the structure shown. Values joined by “and” are separate entries in the source; they are usually repeats but may differ in a detail not shown here. Identical values can stand only once. Like-named read-outs stand apart in the source and are kept apart here.

Legend:
Assay in all cases: microbe, parasite or virus in culture
Type in all cases: cell-based
Mtb # 11291 = settings: for MIC: read-out: MIC Mtb # 11291
[1] = tested on: Mycobacterium intracellulare
Mtb ATCC 35825 = tested on: Mtb ATCC 35825
Mycobacterium abscessus = tested on: Mycobacterium abscessus
Mycobacterium fortuitum = tested on: Mycobacterium fortuitum
Mycobacterium avium = tested on: Mycobacterium avium
Mtb # 8673 = tested on: Mtb # 8673
[2] = Mycobacterium tuberculosis, mean, n = 2 well replicates
[3] = Mycobacterium tuberculosis, single well replicates
[4] = Experiment 2, three replicate columns

For NCC[C@H](O)C(=O)N[C@@H]1C[C@H](N)[C@@H](O[C@H]2O[C@H](CN)[C@@H](O)[C@H](O)[C@H]2O)[C@H](O)[C@H]1O[C@H]1O[C@H](CO)[C@@H](O)[C@H](N)[C@H]1O [Amikacin, reference compound], the MIC (Mtb # 11291; [2]) was 3.4 µM and 2 µg/mL, the MIC (Mtb # 11291; [3]) was 3.42 µM and 2 µg/mL and the “MIC Mtb # 11291” value (Mtb # 11291; single well replicates) was 2 µg/mL (≈ 3.42 µM). The MIC (Mtb # 11291; single well replicates) was 3.42 µM (≈ 2 µg/mL), the “MIC (µg/ml) Mycobacterium intracellulare” value [1, 4] was 0.50 µg/mL (≈ 0.854 µM) and the MIC ([1]; Experiment 2, three replicate columns, read-out: MIC (µM) Mycobacterium intracellulare) was 0.85 µM. It also gave an MIC ([1]; Mycobacterium intracellulare, Experiment 2, three replicate columns, read-out: MIC (µM) Mycobacterium intracellulare) of 0.85 µM, an MIC ([1]; Mycobacterium intracellulare, Experiment 2, three replicate columns, read-out: MIC (µg/ml) Mycobacterium intracellulare) of 0.5 µg/mL and an MIC ([1]; Mycobacterium intracellulare, mean ± SD, read-out: MIC Mycobacterium intracellulare) of 0.9 µM. The MIC (Mtb ATCC 35825; Mycobacterium tuberculosis, ATCC35825, mean, n = 2 well replicates) was 0.1 µM and 0.03 µg/mL, the MIC (Mtb ATCC 35825; Mycobacterium tuberculosis, ATCC35825, single well replicates) was 0.03 µg/mL and 0.05 µM and the MIC (Mtb ATCC 35825; single well replicates) was 0.05 µM (≈ 0.0293 µg/mL). For the same compound, the “MIC Mtb ATCC 35825” value (Mtb ATCC 35825; single well replicates) was 0.03 µg/mL (≈ 0.0512 µM), the “MIC (µg/ml) Mycobacterium abscessus” value (Mycobacterium abscessus; [4]) was 2 µg/mL (≈ 3.42 µM) and the MIC (Mycobacterium abscessus; Experiment 2, three replicate columns, read-out: MIC (µM) Mycobacterium abscessus) was 3.42 µM. It also gave an MIC (Mycobacterium abscessus; Mycobacteroides abscessus, Experiment 2, three replicate columns, read-out: MIC (µM) Mycobacterium abscessus) of 3.42 µM, an MIC (Mycobacterium abscessus; Mycobacteroides abscessus, Experiment 2, three replicate columns, read-out: MIC (µg/ml) Mycobacterium abscessus) of 2 µg/mL and an MIC (Mycobacterium abscessus; Mycobacteroides abscessus, mean ± SD, read-out: MIC Mycobacterium abscessus) of 3.4 µM. For the same compound, the “MIC (µg/ml) Mycobacterium fortuitum” value (Mycobacterium fortuitum; [4]) was 0.25 µg/mL (≈ 0.427 µM), the MIC (Mycobacterium fortuitum; Experiment 2, three replicate columns, read-out: MIC (µM) Mycobacterium fortuitum) was 0.43 µM and the MIC (Mycobacterium fortuitum; Mycolicibacterium fortuitum, Experiment 2, three replicate columns, read-out: MIC (µM) Mycobacterium fortuitum) was 0.43 µM. For the same compound, the MIC (Mycobacterium fortuitum; Mycolicibacterium fortuitum, Experiment 2, three replicate columns, read-out: MIC (µg/ml) Mycobacterium fortuitum) was 0.25 µg/mL, the MIC (Mycobacterium fortuitum; Mycolicibacterium fortuitum, mean ± SD, read-out: MIC Mycobacterium fortuitum) was 0.4 µM and the “MIC (µg/ml) Mycobacterium avium” value (Mycobacterium avium; [4]) was 1 µg/mL (≈ 1.71 µM). It also gave an MIC (Mycobacterium avium; Experiment 2, three replicate columns, read-out: MIC (µM) Mycobacterium avium) of 1.71 µM, an MIC (Mycobacterium avium; Mycobacterium avium, Experiment 2, three replicate columns, read-out: MIC (µM) Mycobacterium avium) of 1.71 µM and an MIC (Mycobacterium avium; Mycobacterium avium, Experiment 2, three replicate columns, read-out: MIC (µg/ml) Mycobacterium avium) of 1 µg/mL. The MIC (Mycobacterium avium; Mycobacterium avium, mean ± SD, read-out: MIC Mycobacterium avium) was 1.7 µM, the MIC (Mtb # 8673; [2]) was > 219 µM and > 128 µg/mL and the MIC (Mtb # 8673; [3]) was > 219 µM and > 128 µg/mL. For the same compound, the MIC (Mtb # 8673; single well replicates) was over 218.58 µM and the “MIC Mtb # 8673” value (Mtb # 8673; single well replicates) was over 128 µg/mL.
